Results on four compounds are retold here after patent US20200078468A1, “NEUROTENSIN RECEPTOR BINDING CONJUGATES AND FORMULATIONS THEREOF” (priority 2016, published 2020).

Where two headings read alike, the source gives them in different places. Square brackets hold non-standard residues; d marks the D form. Peptide text beside a SMILES is read from it. * marks the point of attachment. MMAE(N-CO2CH2CH2S) = CC[C@H](C)[C@@H]([C@@H](CC(=O)N1CCC[C@H]1[C@H](OC)[C@@H](C)C(=O)N[C@H](C)[C@@H](O)c1ccccc1)OC)N(C)C(=O)[C@@H](NC(=O)[C@H](C(C)C)N(C)C(=O)OCCS*)C(C)C; Pen = CC(C)(S)[C@H](N)C(=O)O; Tle = CC(C)(C)[C@H](N)C(=O)O

The subject of assay [1] is HT-29 cells (human colon cancer cells). As to the kind of experiment: inhibition of HT29 cell proliferation (Cell Titer Glo 2.0). The conditions noted are these: 72 h. The assay is classed as cell-based. Here is the method:
Conjugates were assessed in an in vitro assay evaluating inhibition of cell proliferation. HT-29 cells (human colon cancer cells) were seeded in white walled 96-well plates at 10,000 cells per well in 100 μl McCoy's 5a (Invitrogen) media supplemented with 10% Fetal Bovine Serum (Invitrogen). After allowing cells to settle overnight, 5 μl of 20× test article was added to each well in replicate and incubated for 72 h. 72 hours after addition of compound, plates were removed from incubator and allowed to cool to room temperature. 50 μl of Cell Titer Glo 2.0 (Promega) was added to each well, incubated for 15 minutes, and plates were read on Glomax luminometer (Promega) using the Cell Titer Glo protocol. Raw luminometer readings for each plate were transformed by dividing the experimental well into the mean of untreated control wells. This is reported as ratio of untreated, and is plotted with Prism 6 software (Graph Pad) and fitted with a 4-parameter, variable slope curve.
Conjugates are assessed for receptor-dependent cytotoxicity by the difference between an NTSR1-targeting conjugate, and the corresponding conjugate with the same linker moiety and active agent where the NTSR1-targeting domain has been scrambled.
(In general: Cellular ATP, detected with luciferase, serves as a proxy for viable cell number.)

For a further assay, the target named is T1, human NTSR1 (Homo sapiens, UniProt P30989).
T1 construct: host or cells: HEK-293 cells (membrane preparations)
T1 sequence (P30989 whole entry): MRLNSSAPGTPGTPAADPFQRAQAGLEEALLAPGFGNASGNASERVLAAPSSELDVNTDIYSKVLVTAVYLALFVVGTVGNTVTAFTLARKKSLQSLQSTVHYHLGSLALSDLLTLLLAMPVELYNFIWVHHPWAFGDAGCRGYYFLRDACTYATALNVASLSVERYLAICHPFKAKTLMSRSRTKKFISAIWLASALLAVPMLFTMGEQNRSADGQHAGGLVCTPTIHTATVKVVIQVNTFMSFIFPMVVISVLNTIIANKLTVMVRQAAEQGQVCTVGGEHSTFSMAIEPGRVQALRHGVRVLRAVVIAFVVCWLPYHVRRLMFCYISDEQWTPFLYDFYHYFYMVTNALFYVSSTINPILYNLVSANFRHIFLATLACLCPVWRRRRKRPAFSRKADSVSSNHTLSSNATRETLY
Put plainly: radioligand-receptor binding assay, [125I] labeled neurotensin (Eurofins Panlabs). A digest of the protocol:
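Membranes from HEK-293 cells expressing human NTSR1 incubated 45 min with 0.02 nM [125I]neurotensin and conjugate in 6-point 3-fold dilutions from 100 or 10 nM; bound radioactivity counted after filtration. IC50 by nonlinear regression, converted to Ki via Cheng–Prusoff using historical ligand Kd.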

The test system of assay [2] is SW48 (human colon cancer cells). Put plainly: inhibition of SW48 cell proliferation (CellTiter Glo). The assay is classed as cell-based. The conditions noted are these: 72 hrs, read-out: SW-48 proliferation IC50. A digest of the protocol: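 Cells plated at 5,000/well and grown 24 hrs were exposed to conjugates for 72 hrs at 37° C, 5% CO2, in a ten-point three-fold series starting at 10 μM; vehicle was 0.01% DMSO. Proliferation was read by CellTiter Glo. % inhibition was taken relative to vehicle, with IC50 from four-parameter nonlinear regression.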

The mark [3] stands for this setting: [125I] neurotensin 0.02 nM, membranes from NTSR1 expressing HEK-293 cells, 45 minute incubation, Cheng and Prusoff, read-out: NTSR1 binding Ki.

`CC[C@H](C)[C@@H]([C@@H](CC(=O)N1CCC[C@H]1[C@H](OC)[C@@H](C)C(=O)N[C@H](C)[C@@H](O)c1ccccc1)OC)N(C)C(=O)[C@@H](NC(=O)[C@H](C(C)C)N(C)C(=O)OCc1ccc(NC(=O)[C@H](CCCNC(N)=O)NC(=O)[C@@H](NC(=O)CCCCCN2C(=O)CC(SCCC(=O)NCCCC[C@H](NC(C)=O)C(=O)N3CCC[C@H]3C(=O)N(C)[C@@H](CCCNC(=N)N)C(=O)N[C@@H](CCCNC(=N)N)C(=O)N3CCC[C@H]3C(=O)N[C@@H](Cc3ccc(O)cc3)C(=O)N[C@H](C(=O)N[C@@H](CC(C)C)C(=O)O)C(C)(C)C)C2=O)C(C)C)cc1)C(C)C` (stereo partly drawn) [Compound 54]: the IC50 in assay [1] (NTSR1 targeted compound) was found to be 6.2 nM; in assay [2] (NTSR1 targeted compound), 22 nM. Also, affinity at human NTSR1 was put at a Ki of 1.45 nM.

Take `CC[C@H](C)[C@@H]([C@@H](CC(=O)N1CCC[C@H]1[C@H](OC)[C@@H](C)C(=O)N[C@H](C)[C@@H](O)c1ccccc1)OC)N(C)C(=O)[C@@H](NC(=O)[C@H](C(C)C)N(C)C(=O)OCCSSC(C)(C)[C@H](NC(C)=O)C(=O)N1CCC[C@H]1C(=O)N[C@@H](CCCNC(=N)N)C(=O)N[C@@H](CCCNC(=N)N)C(=O)N1CCC[C@H]1C(=O)N[C@@H](Cc1ccc(O)cc1)C(=O)N[C@H](C(=O)N[C@@H](CC(C)C)C(=O)O)C(C)(C)C)C(C)C` [Compound 55] (Ac-[Pen](MMAE(N-CO2CH2CH2S))PRRPY[Tle]L-OH): the IC50 in assay [1] (NTSR1 targeted compound) amounted to 1.9 nM; in assay [2] (NTSR1 targeted compound) it was 13 nM. For the same compound, the Ki (as a rule, a measure of affinity in units of concentration, obtained from inhibition or displacement) on human NTSR1 (setting [3]) was found to be 1.53 nM.

`CC[C@H](C)[C@@H]([C@@H](CC(=O)N1CCC[C@H]1[C@H](OC)[C@@H](C)C(=O)N[C@H](C)[C@@H](O)c1ccccc1)OC)N(C)C(=O)[C@@H](NC(=O)[C@H](C(C)C)N(C)C(=O)OCCSSCCC(=O)NCCCC[C@H](NC(C)=O)C(=O)N1CCC[C@H]1C(=O)N(C)[C@@H](CCCNC(=N)N)C(=O)N[C@@H](CCCNC(=N)N)C(=O)N1CCC[C@H]1C(=O)N[C@@H](Cc1ccc(O)cc1)C(=O)N[C@H](C(=O)N[C@@H](CC(C)C)C(=O)O)C(C)(C)C)C(C)C` [Compound 56]: the results for the IC50 in assay [1] (NTSR1 targeted compound) and in assay [2] (NTSR1 targeted compound) were 0.42 nM and 4.3 nM, respectively. The Ki on human NTSR1 (setting [3]) is 1.15 nM.

In the case of `COc1cc2cc(c1Cl)N(C)C(=O)C[C@H](OC(=O)[C@H](C)N(C)C(=O)CCSC1CC(=O)N(CCCNC(=O)CNC(=O)[C@H](CC(C)C)NC(=O)[C@H](Cc3ccccc3)NC(=O)CNC(=O)CCC(=O)NCCCC[C@H](NC(C)=O)C(=O)N3CCC[C@H]3C(=O)N[C@@H](CC(C)C)C(=O)N3CCC[C@H]3C(=O)N(C)[C@@H](CCCNC(=N)N)C(=O)N[C@H](C(=O)N[C@@H](CCCNC(=N)N)C(=O)N[C@@H](Cc3ccc(O)cc3)C(=O)O)C(C)(C)C)C1=O)[C@]1(C)O[C@H]1[C@H](C)[C@@H]1C[C@@](O)(NC(=O)O1)[C@H](OC)/C=C/C=C(\C)C2` (stereo partly drawn) [Compound 79], the IC50 in assay [1] (NTSR1 scrambled compound) is 97 nM; in assay [2] (NTSR1 scrambled compound) it was 76 nM. For the same compound, the Ki on human NTSR1 (setting [3]) was 980 nM.
